Test [1] concerns the target T1, 5-HT6 receptor (Homo sapiens (Human), UniProt P50406). Kind of test: Antagonistic activity towards 5-HT6 receptors: inhibition of serotonin-induced intracellular cAMP (LANCE cAMP) in HEK 293 cells. The format is cell-based. Conditions: for inhibition at 10 µM: HEK293, read-out: % inhibition of 5-HT6 receptors (I, %), 10 μM solutions, serotonin-induced cAMP; for IC50: serotonin-stimulated intracellular cAMP production, read-out: IC50 in the setting of functional assay. As to the method:
Determination of antagonistic activity of compounds of general formula 1 towards 5-HT6 receptors. Compounds of general formula 1 were tested for their ability to prevent 5-HT6 receptor activation by serotonin. HEK 293 cells (cells of human embryo's kidney) with artificially expressed 5-HT6 receptor, activation of which by serotonin leads to increasing the concentration of intracellular cAMP were used. The content of intracellular cAMP was determined using reagent kit LANCE cAMP (PerkinElmer) according to the method described by the manufacturer of the kit [http://las.perkinelmer.com/content/Manuals/MAN_LANCEcAMP384KitUser.pdf].
Effectiveness of compounds was estimated by their ability to reduce the content of intracellular cAMP induced by serotonin.
For orientation: In TR-FRET formats the signal depends on donor and acceptor labels being close together.

In test [2] the target is T1, 5-HT6 receptor. Description: Competitive radioligand binding ([3H] Lysergic acid diethylamide) to serotonin 5-HT6 receptors, HeLa cell membranes. Conditions: 1.5 nM [3H] Lysergic acid diethylamide, 120 min at 37° C.; for IC50: read-out: IC50 in the setting of competitive binding; for Ki: read-out: Ki in the setting of competitive binding. As for the experimental part:
Determination of activity of serotonin 5-HT6 receptor antagonists of the general formula 1 in the setting of competitive binding to serotonin 5-HT6 receptors.
Screening of disclosed compounds for their potential ability to interact with serotonin 5-HT6 receptor was carried out by method of radioligand binding. For this purpose membrane species were prepared from expressing recombinant human 5-HT6 receptor HeLa cells by means of their homogenization in glass homogenizer with subsequent separation of plasmatic membranes from cell nucli, mitochondria's and cell wreckages by differential centrifugation. […] Mol. Pharmacol. 43:320-327, 1993]. […] After incubation the samples were filtered in vacuo on glass-microfiber filters G/F (Millipor, USA), filters were washed three times with cold solution of medium and radioactivity was measured by scintillation counter MicroBeta 340 (PerkinElmer, USA). […] Binding of tested compounds to the receptor was determined by their ability to displace the radioligand and expressed in percent of displacement. The percent of displacement was calculated according to the following equation:
[formula] wherein: TA—was overall radioactivity in the presence of radioligand only, CA—was radioactivity in the presence of radioligand and tested compound and NA—was radioactivity in the presence of radioligand and Serotonin (5 μM).

T1 sequence (P50406 whole entry): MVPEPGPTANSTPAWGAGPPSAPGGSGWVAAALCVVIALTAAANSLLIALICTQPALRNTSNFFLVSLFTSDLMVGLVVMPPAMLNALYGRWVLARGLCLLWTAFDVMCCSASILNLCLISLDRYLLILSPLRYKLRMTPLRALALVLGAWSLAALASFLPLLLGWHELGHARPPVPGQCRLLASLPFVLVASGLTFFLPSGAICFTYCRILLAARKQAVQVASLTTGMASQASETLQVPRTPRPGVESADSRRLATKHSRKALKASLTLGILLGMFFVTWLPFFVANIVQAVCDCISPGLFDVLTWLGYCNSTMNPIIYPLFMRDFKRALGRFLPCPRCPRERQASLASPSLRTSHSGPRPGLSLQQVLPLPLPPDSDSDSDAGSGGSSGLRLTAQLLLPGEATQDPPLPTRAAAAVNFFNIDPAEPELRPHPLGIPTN

With `CSc1nn2c(C)cc(C)nc2c1S(=O)(=O)c1ccc(F)c(Cl)c1` [1.1(20)], at 5-HT6 receptor [1], the inhibition – broadly, the relative decrease from the control value, in per cent – at 10 µM is 100%. Same read-out and setting: with `CSc1nn2c(C)cc(C)nc2c1S(=O)(=O)c1ccc(N(C)C)cc1` [1.1(19)] the figure was 87%. On to `CSc1nn2c(-c3ccccc3)cc(C)nc2c1S(=O)(=O)c1ccccc1` [1(1)], for which the inhibition at 10 µM on 5-HT6 receptor [1] stood at 88%. With `CSc1nn2c(C)cc(-c3ccccc3)nc2c1S(=O)(=O)c1ccccc1` [1(5)], at 5-HT6 receptor [1], the inhibition at 10 µM was found to be 68%.

For the compound `CCSc1nn2c(C)cc(C)nc2c1S(=O)(=O)c1cccc(F)c1` [1.1(10), 5,7-dimethyl-2-ethylsulfanyl-3-(3-fluorophenylsulfonyl)pyrazolo[1,5-a]pyrimidine], the inhibition at 10 µM at 5-HT6 receptor [1] was 103%. Consider `Cc1cc(C)n2nc(C)c(S(=O)(=O)c3ccc(F)cc3)c2n1` [1.1(21)], for which the inhibition at 10 µM at 5-HT6 receptor [1] is 78%. Consider `CCSc1nn2c(C)cc(C)nc2c1S(=O)(=O)c1ccc(C)cc1` [1.1(15)], for which, at 5-HT6 receptor [1], the inhibition at 10 µM stood at 99% and the IC50 (commonly the concentration at which inhibition is half-maximal) was found to be 80 nM. For `COc1ccc(S(=O)(=O)c2c(SC)nn3c(C)cc(C)nc23)cc1` [1.1(17)], in that order: 65.4% and 440 nM.

Regarding `Cc1cc(C)n2nc(OCCN(C)C)c(S(=O)(=O)c3ccccc3)c2n1` [1.1(22)], the inhibition at 10 µM on 5-HT6 receptor [1] amounted to 66%. For the compound `CSc1nn2c(C)cc(C)nc2c1S(=O)(=O)c1ccc(Cl)cc1` [1.1(16)], on 5-HT6 receptor [1], the inhibition at 10 µM was 94% and the IC50 was determined as 230 nM. For `CSc1nn2c(C)cc(C)nc2c1S(=O)(=O)c1cccc(F)c1` [1.1(9), 5,7-dimethyl-2-methylsulfanyl-3-(3-fluorophenylsulfonyl)pyrazolo[1,5-a]pyrimidine], in that order: 100% and 25 nM.

As for `Cc1cc(C)n2nc(C)c(S(=O)(=O)c3ccccc3)c2n1` [1.1(13)], the inhibition at 10 µM at 5-HT6 receptor [1] is 86%. For the same compound, at 5-HT6 receptor [2], the IC50 was found to be 147 nM and the Ki – broadly, the equilibrium dissociation constant of an inhibitor or competing ligand from its target – amounted to 68.4 nM. As for `Cc1cc(C)n2nc(C)c(S(=O)(=O)c3ccncc3)c2n1` [1(2)], the inhibition at 10 µM on 5-HT6 receptor [1] worked out at 77%. Regarding `CSc1nn2c(C)cc(C)nc2c1S(=O)(=O)c1cccc(Cl)c1` [1.1(11), 5,7-dimethyl-2-methylsulfanyl-3-(3-chlorophenylsulfonyl)pyrazolo[1,5-a]pyrimidine], on 5-HT6 receptor [1], the inhibition at 10 µM was 101% and the IC50 stood at 20 nM. Turning to `Cc1cc(C)n2nc(C)c(S(=O)(=O)c3cccs3)c2n1` [1(4)], the inhibition at 10 µM at 5-HT6 receptor [1] turned out to be 69%. On the same count and under the same terms, with `Cc1cc(C)n2nc(C)c(S(=O)(=O)c3cccc(F)c3)c2n1` [1.1(14)] the figure was 88%. In the case of `Cc1cc(C)n2nc(OCCO)c(S(=O)(=O)c3ccccc3)c2n1` [1.1(2)], the inhibition at 10 µM at 5-HT6 receptor [1] was 82%. Further, on 5-HT6 receptor [2], the IC50 was determined as 477 nM and the Ki stood at 222 nM. Turning to `CCSc1nn2c(C)cc(C)nc2c1S(=O)(=O)c1ccc(OC)cc1` [1.1(18)], at 5-HT6 receptor [1], the inhibition at 10 µM is 61% and the IC50 worked out at 320 nM. Turning to `Cc1cc(C)n2ncc(S(=O)(=O)c3ccccc3)c2n1` [1.1(1), 5,7-dimethyl-3-(phenylsulfonyl)pyrazolo[1,5-a]pyrimidine], on 5-HT6 receptor [1], the inhibition at 10 µM was 78% and the IC50 is over 1000 nM. Further, on 5-HT6 receptor [2], the IC50 was found to be 510 nM and the inhibition constant Ki came out at 237 nM. For `CCSc1nn2c(C)cc(C)nc2c1S(=O)(=O)c1cccc(Cl)c1` [1.1(12), 5,7-dimethyl-2-ethylsulfanyl-3-(3-chlorophenylsulfonyl)pyrazolo[1,5-a]pyrimidine], the inhibition at 10 µM on 5-HT6 receptor [1] stood at 101%. On the same count and under the same terms, as for `CCSc1nn2c(C)cc(C)nc2c1S(=O)(=O)c1ccc(F)cc1` [1.1(8), 5,7-dimethyl-2-ethylsulfanyl-3-(4-fluorophenylsulfonyl)pyrazolo[1,5-a]pyrimidine], the figure is 102%. On the same count and under the same terms, as for `Cc1cc(C)n2nc(OCCO)c(S(=O)(=O)c3ccc(F)cc3)c2n1` [1.1(4)], the figure is 73%. As to `CSc1nn2c(C)cc(C)nc2c1S(=O)(=O)c1ccccc1` [1.1(5), 5,7-dimethyl-2-methylsulfanyl-3-(phenylsulfonyl)pyrazolo[1,5-a]pyrimidine], at 5-HT6 receptor [1], the inhibition at 10 µM turned out to be 104% and the IC50 amounted to 30 nM. On 5-HT6 receptor [2], the IC50 came to 4.61 nM and the Ki turned out to be 2.14 nM. For `CSc1nn2c(C)cc(C)nc2c1S(=O)(=O)c1ccc(F)cc1` [1.1(7), 5,7-dimethyl-2-methylsulfanyl-3-(4-fluorophenylsulfonyl)pyrazolo[1,5-a]pyrimidine], at 5-HT6 receptor [1], the inhibition at 10 µM was 101% and the IC50 was 112 nM. At 5-HT6 receptor [2], the IC50 was under 10 nM. As to `Cc1cc(C)n2nc(C)c(S(=O)(=O)c3cccnc3)c2n1` [1(3)], the inhibition at 10 µM on 5-HT6 receptor [1] was found to be 78%. Regarding `CCSc1nn2c(C)cc(C)nc2c1S(=O)(=O)c1ccccc1` [1.1(6), 5,7-dimethyl-2-ethylsulfanyl-3-(phenylsulfonyl)pyrazolo[1,5-a]pyrimidine], on 5-HT6 receptor [1], the inhibition at 10 µM was 104% and the IC50 stood at 50 nM.
